Measurements: patent US11439707B2, “Hypocrellin derivative substituted both in a peri-position and in 2-position by amino, preparation method, and application thereof” (priority 2017, dated 2022)
Where “and” joins values, the source holds several entries; their conditions need not be identical. Identical values can stand only once.

Experiments:
[1] = singlet oxygen efficiency test, reference rose bengal; assay type: physicochemical
[2] = absorption spectrum (maximum absorption wavelength, molar extinction coefficient); assay type: physicochemical

SMILES	singlet oxygen yield [1]	maximum absorption wavelength [2]	molar extinction coefficient [2]
COCCOCCOCCOCCOCCOCCOCCOCCOCCOCCOCCOCCOCCC(=O)OCCOCCNc1c2c3c4c(c(OC)c(=O)c5c(O)cc(OC)c(c6c(OC)cc(NCCOCCOC(=O)CCOCCOCCOCCOCCOCCOCCOCCOCCOCCOCCOCCOCCOC)c(c1=O)c63)c54)CC(C)=C2 [HC-1c-PEG12]	35%	626 nm	32,500 M^−1cm^−1
COc1c(NC2CCCC(C(=O)O)C2)c2c(=O)cc(OC)c3c4c(OC)cc(=O)c5c(O)c(NC6CCCC(C(=O)O)C6)c6c(c(c1C(C(C)=O)C(C)=C6)c23)c54 (stereo not drawn) [HB-15b]	24%	623 nm	27,000 M^−1cm^−1
COCCOCCC(=O)OCCOCCNc1c(NCCCC(=O)O)c2c(=O)cc(OC)c3c4c(OC)cc(=O)c5c(O)c(OC)c6c(c(c1C=C(C)C6C(C)=O)c23)c54 (stereo not drawn) [HB-48a-PEG1]	32%	628 nm	31,500 M^−1cm^−1
COCCOCCOCCOCCOCCOCCOC(=O)CCCNc1c2c3c4c(c(OC)c(=O)c5c(NCCCC(=O)OCCOCCOCCOCCOCCOCCOC)cc(OC)c(c6c(OC)cc(O)c(c1=O)c63)c54)CC(C)=C2 [HC-8d-PEG6]	32%	624 nm	31,500 M^−1cm^−1
COCCOCCNC(=O)C1CCC(CNc2c(NCC3CCC(C(=O)NCCOCCOC)CC3)c3c(=O)cc(OC)c4c5c(OC)cc(=O)c6c(O)c(OC)c7c(c(c2C=C(C)C7)c34)c65)CC1 (stereo not drawn) [HC-13a-NH-PEG1]	32%	624 nm	30,000 M^−1cm^−1
COc1c2c3c4c(c(NC(CC(N)=O)C(=O)O)c(=O)c5c(O)cc(OC)c(c6c(OC)cc(NC(CC(N)=O)C(=O)O)c(c1=O)c63)c54)C=C(C)C2C(C)=O (stereo not drawn) [HB-26d]	16%	622 nm	20,500 M^−1cm^−1
COc1c2c3c4c(c(NC5CCCCC5C(=O)O)c(=O)c5c(NC6CCCCC6C(=O)O)cc(OC)c(c6c(OC)cc(O)c(c1=O)c63)c54)C=C(C)C2C(C)=O (stereo not drawn) [HB-16c]	28%	628 nm	28,000 M^−1cm^−1
COc1c2c3c4c(c(NCCC(=O)O)c(=O)c5c(NCCC(=O)O)cc(OC)c(c6c(OC)cc(O)c(c1=O)c63)c54)C=C(C)C2C(C)=O (stereo not drawn) [HB-10c]	38%	622 nm	33,000 M^−1cm^−1
COc1c(O)c2c(=O)cc(OC)c3c4c(OC)cc(=O)c5c(NC6CCC(O)CC6)c(NC6CCC(O)CC6)c6c(c(c1C(C(C)=O)C(C)=C6)c23)c54 (stereo not drawn) [HB-17a]	22%	617 nm	25,000 M^−1cm^−1
COc1c(O)c2c(=O)cc(OC)c3c4c(OC)cc(=O)c5c(NCC(=O)O)c(NCC(=O)O)c6c(c(c1CC(C)=C6)c23)c54 [HC-7a]	28%	620 nm	27,500 M^−1cm^−1
COc1c(O)c2c(=O)cc(OC)c3c4c(OC)cc(=O)c5c(NCCC6CCC(O)CC6)c(NCCC6CCC(O)CC6)c6c(c(c1C(C(C)=O)C(C)=C6)c23)c54 (stereo not drawn) [HB-18a]	20%	614 nm	24,000 M^−1cm^−1
COc1c(O)c2c(=O)cc(OC)c3c4c(OC)cc(=O)c5c(NC(CC(N)=O)C(=O)O)c(NC(CC(N)=O)C(=O)O)c6c(c(c1C(C(C)=O)C(C)=C6)c23)c54 (stereo not drawn) [HB-26a]	20%	614 nm	20,500 M^−1cm^−1
COc1c2c3c4c(c(NC(CO)C(=O)O)c(=O)c5c(O)cc(OC)c(c6c(OC)cc(NC(CO)C(=O)O)c(c1=O)c63)c54)C=C(C)C2C(C)=O (stereo not drawn) [HB-23d]	18%	621 nm	21,500 M^−1cm^−1
COCCOC(=O)C1CCC(Nc2c(NC3CCC(C(=O)OCCOC)CC3)c3c(=O)cc(OC)c4c5c(OC)cc(=O)c6c(O)c(OC)c7c(c(c2C=C(C)C7C(C)=O)c34)c65)CC1 (stereo not drawn) [HB-14a-PEG1]	32%	622 nm	30,500 M^−1cm^−1
COc1c2c3c4c(c(NC5CCC(C(=O)O)C5)c(=O)c5c(NC6CCC(C(=O)O)C6)cc(OC)c(c6c(OC)cc(O)c(c1=O)c63)c54)C=C(C)C2C(C)=O (stereo not drawn) [HB-19c]	24%	622 nm	25,500 M^−1cm^−1
COc1c2c3c4c(c(NC5CCC(O)CC5)c(=O)c5c(O)cc(OC)c(c6c(OC)cc(NC7CCC(O)CC7)c(c1=O)c63)c54)C=C(C)C2C(C)=O (stereo not drawn) [HB-17d]	22%	624 nm	25,000 M^−1cm^−1
COc1c2c3c4c(c(NCCCC(=O)O)c(=O)c5c(O)cc(OC)c(c6c(OC)cc(NCCCC(=O)O)c(c1=O)c63)c54)C=C(C)C2 [HC-8d]	26%	623 nm	27,000 M^−1cm^−1

SMILES	singlet oxygen yield [1]	maximum absorption wavelength [2]	molar extinction coefficient [2]
COc1c2c3c4c(c(NCc5ccccn5)c(=O)c5c(O)cc(OC)c(c6c(OC)cc(NCc7ccccn7)c(c1=O)c63)c54)C=C(C)C2C(C)=O (stereo not drawn) [HB-38d]	17%	624 nm	18,500 M^−1cm^−1
COc1c(O)c2c(=O)cc(OC)c3c4c(OC)cc(=O)c5c(NCc6cccc[n+]6C)c(NCc6cccc[n+]6C)c6c(c(c1C(C(C)=O)C(C)=C6)c23)c54 (stereo not drawn) [HB-38a-N^+]	18%	620 nm	22,000 M^−1cm^−1
COCCOC(=O)C1(Nc2c(NC3(C(=O)OCCOC)CC3)c3c(=O)cc(OC)c4c5c(OC)cc(=O)c6c(O)c(OC)c7c(c(c2C=C(C)C7)c34)c65)CC1 [HC-35a-PEG1]	32%	622 nm	31,000 M^−1cm^−1
COc1c(NCC2CCC(C(=O)NCCCCS(=O)(=O)O)CC2)c2c(=O)cc(OC)c3c4c(OC)cc(=O)c5c(O)c(NCC6CCC(C(=O)NCCCCS(=O)(=O)O)CC6)c6c(c(c1CC(C)=C6)c23)c54 (stereo not drawn) [HC-13b-C4-SO3H]	32%	622 nm	30,000 M^−1cm^−1
COc1c(NC2CCCCC2C(=O)O)c2c(=O)cc(OC)c3c4c(OC)cc(=O)c5c(O)c(NC6CCCCC6C(=O)O)c6c(c(c1C(C(C)=O)C(C)=C6)c23)c54 (stereo not drawn) [HB-16b]	26%	625 nm	26,000 M^−1cm^−1
COc1c(O)c2c(=O)cc(OC)c3c4c(OC)cc(=O)c5c(NCC(=O)O)c(NCC(=O)O)c6c(c(c1C(C(C)=O)C(C)=C6)c23)c54 (stereo not drawn) [HB-7a]	28%	620 nm	26,500 M^−1cm^−1
COCCOCCOCCOCCOCCOCCOCCOCCOCCOCCOCCOCCOCCC(=O)OC1CCC(Nc2c3c4c5c(c(OC)c(=O)c6c(O)cc(OC)c(c7c(OC)cc(NC8CCC(OC(=O)CCOCCOCCOCCOCCOCCOCCOCCOCCOCCOCCOCCOCCOC)C8)c(c2=O)c74)c65)C(C(C)=O)C(C)=C3)C1 (stereo not drawn) [HB-20c-PEG12]	34%	632 nm	32,500 M^−1cm^−1
COCCOC(=O)C1CCCC(Nc2c(NC3CCCC(C(=O)OCCOC)C3)c3c(=O)cc(OC)c4c5c(OC)cc(=O)c6c(O)c(OC)c7c(c(c2C=C(C)C7C(C)=O)c34)c65)C1 (stereo not drawn) [HB-15a-PEG1]	30%	624 nm	30,000 M^−1cm^−1
COc1c(NCCCC(=O)NCCCCS(=O)(=O)O)c2c(=O)cc(OC)c3c4c(OC)cc(=O)c5c(O)c(NCCCC(=O)NCCCCS(=O)(=O)O)c6c(c(c1CC(C)=C6)c23)c54 [HC-8b-NH—C4-SO3H]	33%	624 nm	31,500 M^−1cm^−1
CCCCCCNc1c(NCCCCCC)c2c(=O)cc(OC)c3c4c(OC)cc(=O)c5c(O)c(OC)c6c(c(c1C=C(C)C6)c23)c54 [HC-34a]	30%	625 nm	31,500 M^−1cm^−1
CCNNc1c(O)c2c(=O)cc(OC)c3c4c(OC)cc(=O)c5c(NNCC)c(OC)c6c(c(c1C=C(C)C6C(C)=O)c23)c54 (stereo not drawn) [HB-36b]	30%	622 nm	31,500 M^−1cm^−1
COc1c2c3c4c(c(NCCNCCOCCO)c(=O)c5c(O)cc(OC)c(c6c(OC)cc(NCCNCCOCCO)c(c1=O)c63)c54)C=C(C)C2C(C)=O (stereo not drawn) [HB-5d-PEG1]	32%	625 nm	30,500 M^−1cm^−1
COCCOCCOCCOCCOCCOCCOC(=O)CCCCCNc1c2c3c4c(c(OC)c(=O)c5c(O)cc(OC)c(c6c(OC)cc(NCCCCCC(=O)OCCOCCOCCOCCOCCOCCOC)c(c1=O)c63)c54)CC(C)=C2 [HC-9c-PEG6]	36%	628 nm	33,000 M^−1cm^−1
COc1c2c3c4c(c(NC5CCC(C(=O)O)CC5)c(=O)c5c(O)cc(OC)c(c6c(OC)cc(NC7CCC(C(=O)O)CC7)c(c1=O)c63)c54)C=C(C)C2C(C)=O (stereo not drawn) [HB-14d]	24%	623 nm	27,000 M^−1cm^−1
COc1c(NCC[N+]23CC[N+](C)(CC2)CC3)c2c(=O)cc(OC)c3c4c(OC)cc(=O)c5c(O)c(NCC[N+]67CC[N+](C)(CC6)CC7)c6c(c(c1C(C(C)=O)C(C)=C6)c23)c54 (stereo not drawn) [HB-41b]	32%	624 nm	31,500 M^−1cm^−1
C=CC1=C(C)c2cc3[nH]c(cc4[nH]c(cc5nc(cc1n2)C(C)=C5C=C)c(C)c4CCC(=O)O)c(CCC(=O)O)c3C [PpIX, reference compound]	–	570 nm and 630 nm	less than 10000 M^−1cm^−1
COc1c(O)c2c(=O)cc(OC)c3c4c(OC)cc(=O)c5c(NCCO)c(NCCO)c6c(c(c1C(C(C)=O)C(C)=C6)c23)c54 (stereo not drawn) [HB-2a]	28%	–	–
